Results from patent publication US11613753B2, “Methods and pharmaceutical compositions for treating tubulin carboxypeptidases associated diseases” (LES LABORATOIRES SERVIER, priority 2017, dated 2023).
“Also recorded” adds a separate entry of the source.

Biological target: T1, brain TCP (fraction IV) (Mus musculus, UniProt Q8C1W1)
T1 construct: from tissue; host or cells: adult mouse brain, fraction IV (ammonium sulfate cut, Hitrap Q XL flow-through, Hitrap SP XL eluate)
T1 sequence (Q8C1W1 1-375): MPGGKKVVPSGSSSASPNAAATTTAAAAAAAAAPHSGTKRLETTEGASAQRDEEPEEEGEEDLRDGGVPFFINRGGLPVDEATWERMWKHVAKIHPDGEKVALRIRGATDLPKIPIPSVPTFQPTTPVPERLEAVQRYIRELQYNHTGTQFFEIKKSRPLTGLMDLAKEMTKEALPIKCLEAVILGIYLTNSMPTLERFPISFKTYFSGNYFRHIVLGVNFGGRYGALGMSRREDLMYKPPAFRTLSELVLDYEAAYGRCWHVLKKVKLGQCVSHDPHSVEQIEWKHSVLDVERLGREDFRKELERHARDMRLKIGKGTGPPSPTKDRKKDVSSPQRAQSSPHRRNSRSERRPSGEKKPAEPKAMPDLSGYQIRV
T1 sequence (Q99LQ4 1-66 partner): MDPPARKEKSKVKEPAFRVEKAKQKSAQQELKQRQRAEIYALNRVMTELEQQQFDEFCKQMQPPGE
Experiment: TCP activity assay, radioactivity test with [14C]-tyrosinated taxol-stabilized microtubules, on enriched brain fraction IV
Type: biochemical
Conditions: FIG. 1B
Procedure: Preparation of tyrosinated tubulin and microtubule, and EB1. Bovine brain tubulin (12 mg/mL, prepared as in (S. Ramirez-Rios et al., (2016) Molecular biology of the cell 27, 2924) was tyrosinated by incubation for 45 min at 30° C. with purified chicken TTL (1 mg/mL, gift from Steinmetz group) and 0.1 mM L-tyrosine or [14C]-L-tyrosine (0.125 μCi/mole) in 40 mM Pipes at pH 6.7, 60 mM KCl, 2.5 mM ATP, 1 mM DTT, 12.5 mM MgCl2. Microtubules polymerization was allowed by one-third dilution in 100 mM PIPES at pH 6.7. 1 mM EGTA, 1 mM MgCl2, 30% glycerol, 1 mM GTP and incubation at 32° C. for 45 min, followed by another 45 min incubation with 50 μM Paclitaxel (Calbiochem). Microtubules were sedimented by 25 min centrifugation at 100,000 g and 30° C. on 60% glycerol cushions. TTL-containing supernatant was discarded and tyrosinated-microtubules were resuspended in 100 mM PIPES at pH 6.7, 1 mM EGTA, 1 mM MgCl2, 10% glycerol, 80 μM paclitaxel and stored at −20° C. To obtain unpolymerized tyrosinated-tubulin, paclitaxel was omitted during the whole procedure. EB1 was prepared as in S. Ramirez-Rios et al., (2016) Molecular biology of the cell 27, 2924.
TCP activity assays. In radioactivity tests using [14C]-tyrosinated taxol-stabilized microtubule, enzyme activity was measured in 100 mM MES at pH 6.7. 1 mM EGTA and 1 mM MgCl2 using 2 μM radiolabeled tubulin, except in FIGS. 2D and S2D (as indicated in legend). Reactions were performed for 45 min at 37° C. (without or with previous incubation with inhibitors, see legends) and were stopped on ice by addition of 20 μg/ml bovine serum albumin and 10% perchloric acid and centrifugation. Tyrosine cleaved from microtubules was estimated by measuring radioactivity in the supernatant (a zero time control was subtracted). To compose the table of Fig. S1A, detyrosination activity from equal volumes of the various fractions was measured. In tests with inhibitors, detyrosination activity was tested after a 20 min preincubation with inhibitor (except in Figs. S2C and S2) where varying time of incubation were used as indicated in legend), and results with inhibitors were expressed as percentage of the activity in the control with corresponding solvent. In tests using Western-blots, enzyme activity was assayed with 5 μM substrates (taxol-stabilized microtubule, tubulin or EB1) in 100 mM MES at pH 6.7. Positive controls were done with carboxypeptidase A (2 ng/mL). Reactions were stopped by addition of Laemmli buffer. A reaction with carboxypeptidase A (CPA), which efficiently cleaves aromatic and aliphatic C-terminal residues, was used as positive control. In tests using VASH/SVBP complexes purified on cobalt resin from HEK293T cells, enzymes concentration were approximated from in-gel Coomassie-blue staining of purified VASH1 and VASH2 together with standards of bovine serum albumin.
Enzyme enrichment. We designed a three-step purification procedure from brain lysate inspired from previous efforts (N. Kumar, M. Flavin, (1981) The Journal of biological chemistry 256, 7678; C. E. Argarana, H. S. Barra, R. Caputto, (1980) Journal of neurochemistry 34, 114). All steps were carried out at 4° C. Adult mice brains were homogenized in 50 mM phosphate buffer at pH 6.7, 1 mM EGTA, 1 mM MgCl2, 1 μg/ml DNAse with a protease inhibitor cocktail (cOmplete EDTA-free, Roche) and centrifuged 1 h at 100.000 g. The supernatant was collected (Fraction 1). In step 1 (ammonium sulfate fractionation), Fraction 1 was slowly brought to 45% ammonium sulfate, incubated for 15 min and centrifuged 20 min at 15,000 g. Resulting supernatant underwent the same procedure at 65% ammonium sulfate. The pellet was re-suspended in one-eighth of initial volume with 50 mM MES pH 6.7, 1 mM EGTA, 1 mM MgCl2 and desalted using Bio-Gel P30 (Bio-Rad) equilibrated with the same buffer (Fraction 11). […]

| SMILES | Inhibition of brain TCP activity (in words) | IC50, inhibition of TCP activity (20 min preincubation with inhibitor) [µM] | IC50 (20 min preincubation with inhibitor, read-out: IC50, inhibition of TCP activity) [µM] |
| --- | --- | --- | --- |
| NCCc1ccc(S(=O)(=O)F)cc1 [AEBSF] | inhibited | – | – |
| CC(C)C[C@H](NC(=O)[C@H]1O[C@@H]1C(=O)O)C(=O)NCCCCN=C(N)N [E-64] | inhibited; also recorded: modest inhibitory activity | 300 | – |
| CCOC(=O)[C@H]1O[C@@H]1C(=O)N[C@@H](Cc1ccc(O)cc1)C(=O)O [EpoY] | most potent inhibitor | – | ~0.5 |
| CCN1C(=O)C=CC1=O [N-Ethylmaleimide] | inhibited | – | – |
